Assay results: PubChem BioAssay AID2060604 (Molecular Pharmacology Branch, DTP, NCI, 2025)
“And” between values parts separate entries of the source, which are not always exact repeats. Identical values can stand only once.

Test system: 379773-124-R-J2-PDC complex spheroids, viability % test/control
Experiment: Anticancer human tumor 379773-124-R-J2-PDC patient-derived endometrial carcinoma cell line growth inhibition [CLK]
Details: for viability, T/C: stronger effect = lower value
Source text: A high-throughput screen of multi-cell type tumor spheroids was designed to identify active combinations of […] and targeted small molecules. Complex spheroids include a stromal component modeled by human endothelial cells (HUVEC) and fibroblasts modeled by human mesenchymal stem cells (MSCs). The concentration ranges selected for each drug and investigational agent were based upon clinically achievable concentrations if the clinical Cmax of the agent was known.
Compounds. The drugs and investigational agents: cirtuvivint (SM08502; NSC835563), CC-671 (NSC850746), vemurafenib (NSC761431), tapotoclax (NSC804041), sotorasib (NSC818433), adagrasib (NSC831453), MRTX-1133 (NSC836407), BAY2416964 (NSC825713), copanlisib (NSC816437), inavolisib (NSC800729), abemaciclib (NSC768073), osimertinib (NSC779217), entinostat (NSC756642), eltanexor (KPT-8602, NSC794443), venetoclax (NSC766270), ceralasertib (NSC777638), bortezomib (NSC756655), olaparib (NSC753686), talazoparib (NSC767125), alisertib (NSC759677), peposertib (NSC802822), gemcitabine (NSC613327), 5-fluorouracil (NSC19893), SN-38 (NSC673596), oxaliplatin (NSC266046), paclitaxel (NSC125973), and doxorubicin (NSC123127), were obtained from the National Cancer Institute (NCI) Developmental Therapeutics Program Chemical Repository. The FDA-approved anticancer drug set is available from the Developmental Therapeutics Program at https://dtp.cancer.gov/organization/dscb/obtaining/available plates.htm. […] The stock solutions were prepared in dimethyl sulfoxide (DMSO, Sigma-Aldrich, St. Louis, MO, cat. D2650), except for the platinum complexes which were prepared in saline (Quality Biological, Gaithersburg, MD, cat. 114-055-101), at 800-fold the tested concentration and stored at -70 degrees C prior to their use. All drugs and investigational agents were tested over a range starting from a high concentration at or near the clinical Cmax and decreasing in half-log increments. If the clinical Cmax for an agent had not been determined, the highest concentration tested was 10 microM.
Cell Culture. All cells were maintained in an incubator at 37 degrees C and 5% CO2 with 95% humidity. The PDC lines were cultured according to standard operating procedures established by the NCI PDMR. Briefly, all PDCs were thawed and cultured in Matrigel-coated flasks prepared with a working solution of 1X Ham's F-12 nutrient mix, without supplementation (Invitrogen, Waltham, MA, cat. 11765054), 100 U/mL penicillin-streptomycin (Invitrogen, cat. 15140122), and 2.5% Matrigel (Corning Inc., Corning, NY, cat. 354248) for the first three passages. The 947758-054-R-J2-PDC line was cultured in 6B/Colon 1A media, which includes advanced DMEM/F-12 (Thermo Fisher Scientific, cat. 12634028), 10 mM HEPES (Thermo Fisher Scientific, cat. 15630080), 1X GlutaMAX supplement (Thermo Fisher Scientific, cat. 35050061), 0.1 mg/mL primocin (InvivoGen, cat. ant-pm-2), 10% defined fetal bovine serum, heat inactivated (HyClone Laboratories Inc., cat. SH30070.03HI), 1.25 mM N-Acetyl-L-cysteine (Sigma-Aldrich, cat. A9165), 10 mM nicotinamide (Sigma-Aldrich, cat. N0636), 1X B-27 supplement (Thermo Fisher Scientific, cat. 17504044), 1X N-2 supplement (Thermo Fisher Scientific, cat. 17502048), and 10 microM Y-27632 dihydrochloride (Tocris Bioscience, cat. 1254). The 876862-298-R-J1-PDC was cultured in 6E media, which includes all 6B/Colon 1A media components plus 50% L-WRN conditioned media (ATCC, cat. CRL-3276), 50 ng/mL recombinant human EGF recombinant protein (hEGF; Thermo Fisher Scientific, cat. PHG0311), 10 ng/mL recombinant human fibroblast growth factor 10 (hGFG-10; PeproTech, cat. 100-26), 1 ng/mL recombinant human fibroblast growth factor 2 (hFGF-2; PeproTech, cat. 100-18B), and 1 µM prostaglandin E2 (PGE2; Tocris, cat. 2296). The 227483-062-R1-J1-PDC line was cultured in Panc media, containing all 6E components except hFGF-2, with the addition of 500 nM SB-431542 (Selleckchem, cat. S1067) and 10 nM gastrin (Tocris, cat. 3006). […]
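Note: compound exposure lasted seven days before the viability readout.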
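Throughout, for viability, T/C: 100% = DMSO vehicle control wells.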

## CCN1CCN(Cc2ccc(Nc3ncc(F)c(-c4cc(F)c5nc(C)n(C(C)C)c5c4)n3)nc2)CC1 + CN1CCN(c2cc(C(=O)Nc3cc4cc(-c5cnn(C)c5)ccc4cn3)ccn2)CC1
Curve of first compound, second compound 0.0316 µM
  IC50: > 1000 nM
Curve of first compound, second compound 0.1 µM
  IC50: > 1000 nM
Curve of first compound, second compound 0.316 µM
  IC50: < 3.16 nM
Curve of first compound, second compound 1 µM
  IC50: < 3.16 nM
Curve of first compound, second compound 3.16 µM
  IC50: < 3.16 nM
Curve of first compound, second compound 10 µM
  IC50: < 3.16 nM
Second compound 0.0316 µM, first compound 0.00316 µM
  viability, T/C: 90.3%
Second compound 0.0316 µM, first compound 0.01 µM
  viability, T/C: 85.3%
Second compound 0.0316 µM, first compound 0.0316 µM
  viability, T/C: 82.2%
Second compound 0.0316 µM, first compound 0.1 µM
  viability, T/C: 98%
Second compound 0.0316 µM, first compound 0.316 µM
  viability, T/C: 86%
Second compound 0.0316 µM, first compound 1 µM
  viability, T/C: 79.6%
Second compound 0.1 µM, first compound 0.00316 µM
  viability, T/C: 101%
Second compound 0.1 µM, first compound 0.01 µM
  viability, T/C: 76.5%
Second compound 0.1 µM, first compound 0.0316 µM
  viability, T/C: 76.9%
Second compound 0.1 µM, first compound 0.1 µM
  viability, T/C: 80.7%
Second compound 0.1 µM, first compound 0.316 µM
  viability, T/C: 78.1%
Second compound 0.1 µM, first compound 1 µM
  viability, T/C: 72%
Second compound 0.316 µM, first compound 0.00316 µM
  viability, T/C: 32.4%
Second compound 0.316 µM, first compound 0.01 µM
  viability, T/C: 26%
Second compound 0.316 µM, first compound 0.0316 µM
  viability, T/C: 30.9%
Second compound 0.316 µM, first compound 0.1 µM
  viability, T/C: 30.3%
Second compound 0.316 µM, first compound 0.316 µM
  viability, T/C: 39.7%
Second compound 0.316 µM, first compound 1 µM
  viability, T/C: 32.5%
Second compound 1 µM, first compound 0.00316 µM
  viability, T/C: 0.18%
Second compound 1 µM, first compound 0.01 µM
  viability, T/C: 0.18%
Second compound 1 µM, first compound 0.0316 µM
  viability, T/C: 1.15%
Second compound 1 µM, first compound 0.1 µM
  viability, T/C: 0.3%
Second compound 1 µM, first compound 0.316 µM
  viability, T/C: 0.96%
Second compound 1 µM, first compound 1 µM
  viability, T/C: 2.04%
Second compound 3.16 µM, first compound 0.00316 µM
  viability, T/C: 0.11%
Second compound 3.16 µM, first compound 0.01 µM
  viability, T/C: 0.15%
Second compound 3.16 µM, first compound 0.0316 µM
  viability, T/C: 0.25%
Second compound 3.16 µM, first compound 0.1 µM
  viability, T/C: 0.83%
Second compound 3.16 µM, first compound 0.316 µM
  viability, T/C: 0.11%
Second compound 3.16 µM, first compound 1 µM
  viability, T/C: 0.44%
Second compound 10 µM, first compound 0.00316 µM
  viability, T/C: 1.88%
Second compound 10 µM, first compound 0.01 µM
  viability, T/C: 1.3%
Second compound 10 µM, first compound 0.0316 µM
  viability, T/C: 0.17%
Second compound 10 µM, first compound 0.1 µM
  viability, T/C: 1.36%
Second compound 10 µM, first compound 0.316 µM
  viability, T/C: 0.15%
Second compound 10 µM, first compound 1 µM
  viability, T/C: 0.16%

## C=CC(=O)N1CCN(c2nc(=O)n(-c3c(C)ccnc3C(C)C)c3nc(-c4c(O)cccc4F)c(F)cc23)C(C)C1 (centres undefined)
Compound 0.0316 µM
  viability, T/C: 93.1% and 85.7%
Compound 0.1 µM
  viability, T/C: 82.4% and 92.2%
Compound 0.316 µM
  viability, T/C: 88.2% and 84.4%
Compound 1 µM
  viability, T/C: 107% and 91.6%
Compound 3.16 µM
  viability, T/C: 95.7% and 98.6%
Compound 10 µM
  viability, T/C: 92.6% and 94.5%
Curve of compound
  IC50: > 10000 nM
